Data reported in patent US20260373164A1, “4(RS)-4-F4-NEUROPROSTANE DERIVATIVES (4-F4T-NEUROP) AND THEIR USE IN TREATING VENTILATOR INDUCED DIAPHRAGMATIC DYSFUNCTION AND OTHER DISEASES” (INSTITUT NATIONAL DE LA SANTÉ ET DE LA RECHERCHE MÉDICALE, priority 2022, published 2026).
Entries after “also recorded” stand apart in the source; their conditions may differ.

Columns and labels:
[1] = Pharmacokinetic study in pigs, plasmatic concentration after IV bolus; assay type: in vivo, piglets; details: single IV bolus 0.250 mg·kg^−1, 3 pigs
Experimental: In a first set of experiment, a pharmacokinetic study was performed on 3 control pig injected with a single bolus of VB558 (0.250 mg·kg^−1). Blood samples were collected every regularly during 12 hours to evaluate the plasmatic concentration of VB558. […] In order to test the preventing effect of VB558 in the piglet model, the protocol of IV injection was slightly adapted to the duration of the mechanical ventilation (i.e 72 hours). The inventors injected a bolus of 0.250 mg·kg^−1 then a maintenance dose of 0.025 mg·kg^−1 every 12 hours (FIG. 5B). The VB558 group was compared to a group of piglets (placebo) receiving the same amount of solvent (methanol) (FIG. 5B).

mouse diaphragm (VIDD) = experiment: Diaphragm force-frequency relationship after 6 h of mechanical ventilation (murine model of VIDD); assay type: in vivo, C57/BL6 mice; details: for protection against mechanical ventilation (force-frequency relationship): IV; for protection against mechanical ventilation (force-frequency relationship) / prevention of VIDD in murine model: mice; for prevention of VIDD in murine model: general statement
Experimental: 35 adult male mice (10 to 12 weeks old, 25 to 30 g) C57/BL6 mice were separated into five groups. Three groups were intubated with a 22-gauge angio-catheter and mechanically ventilated for 6 consecutive hours using a volume-driven small-animal ventilator (Minivent®, Harvard Apparatus, Saint-Laurent, Canada). Tidal volume was established at […] body weight with a respiratory rate of 150 breaths/min, a positive end-expiratory pressure (PEEP) level from 2 to 4 cm H2O and a fraction of inspired oxygen of 0.21. Non-spontaneous ventilation was defined as a lack of diaphragm contractile activity attested by repetitive stereotypical deflections observed in the airway pressure curve.
The mice were divided into two groups. The first group (control) received methanol, at the volume corresponding to the equivalent volume brought with 4F4t-NeuroP, intravenously (IV) infused over a 5-minute period, 20 minutes before start of MV. The second group of mice received 4F4t-NeuroP intravenously (IV) infused over a 5-minute period, 20 minutes before start of MV. The two groups were intubated and treated in an identical manner (see Matecki et al., 2016 for details^15).
At the end of the protocol of MV, the entire diaphragm was surgically excised and mice were euthanized, by exsanguination. Isometric contractile properties were assessed as described previously in detail (Matecki et al., 2016^15). The excised diaphragm strip was mounted into jacketed tissue bath chambers filled with equilibrated and oxygenated Krebs solution. The muscles were supra-maximally stimulated using square wave pulses (Model S48; Grass Instruments, West Warwick, RI). The force-frequency relationship was determined by sequentially stimulating the muscles for 600 ms at 10, 20, 30, 50, 60, 80, 100 and 120 Hz with 1 minute between each stimulation train. After measurement of contractile properties, muscles were measured at Lo (the length at which the muscle produced maximal isometric tension), dried and weighted. For comparative purposes, diaphragmatic force production was normalized for total muscle strip cross-sectional area and expressed in N·cm^−2. The total muscle strip cross-sectional area was determined by dividing muscle weight by its length and tissue density (1.056 g/cm^3).
Mice were anesthetized and mechanically ventilated for 6 hours. Mice were randomized to receive or not at the beginning of the ventilation a single IV injection of 4F4t-NeuroP at concentrations ranging from 0.01-100 μM to build a dose-response curve of the force-frequency relationship in order to define the optimal concentration.
As for 4F4t-NeuroP, VB558 was injected intravenously into the mouse at a concentration of 1 and 10 μM before ventilating the mice for 6 hours.

[2] = test system: ventricular cardiomyocytes derived from DMD hIPSc (RyR2); experiment: Diastolic level of calcium in ventricular cardiomyocytes derived from DMD hIPSc (indo-1); assay type: cell-based, human
Experimental: FIG. 6: Effect of Hexanor on the diastolic level of Calcium in ventricular cardiomyocytes derived from DMD and control hIPSc. The cardiomyocytes were loaded with indo-1 to assess in a ratiometric manner the intracellular level of calcium. […] A. The level of calcium is higher in DMD compared to control cells. This is prevented by hexanor (1 μM).
The inventors then tested the impact of VB558 on the diastolic level of Calcium in ventricular cardiomyocytes derived from Duchenne muscular dystrophy (DMD).

prostanoid receptors = experiment: In vitro binding assay on prostanoid receptors (agonist or antagonist effect); details: effects higher than 50% considered significant
Excerpt: Prostaglandin (or prostanoid) receptors represent a family of cell surface membrane receptors known to bind and respond principally to metabolites of the polyunsaturated fatty acid (PUFA), arachidonic acid. As some of them are known to modulate cAMP production or intracellular calcium concentration, and based on the chemical structure of neuroprostanes (i.e DHA derivatives), the inventors performed an in vitro binding assay to specifically evaluate the potential agonist or antagonist effect of VB558 on established prostanoid receptors. Results showing an inhibition (or stimulation for assays run in basal conditions) higher than 50% are considered to represent significant effects of the test compounds.

RyR1 = molecular target: T1, RyR1 (Mus musculus, UniProt E9PZQ0); experiment: Ca2+ sparks frequency in saponin skinned EDL muscle fibres of post myocardial infarction (PMI) mice; assay type: cell-based; details: 1 μM 4F4t-NeuroP, acute incubation; EDL fibres from PMI mice
T1 construct: Fluo-4 Ca2+ sparks

[3] = test system: mouse diaphragm muscle fibers; experiment: Diaphragm muscle fibre atrophy (cross section area, fibre type) after 12 hours of mechanical ventilation in mice; assay type: in vivo; details: 10 μM, 12 h MV
Experimental: FIG. 3: A. Force frequency relationship of mice diaphragm muscle, after 12 hours of mechanical ventilation, treated or not with 10 μM 4F4t-NeuroP. […] Representative immunostaining of fast and slow diaphragm muscle fibers in mouse. Antibodies against fast- and slow-type myosin ATPase were used to perform immunostaining on cryosections of mouse diaphragm. Muscle membrane was counterstained with dystrophin antibodies. The staining was performed in diaphragm muscle 12 h after MV with or without 4F4t-NeuroP. Average cross-section area was quantified in each condition including all fibre type (B.) or by discriminating slow versus fast fibres (C.). D. Average distribution of Fast versus Slow twitch fibres in each condition. (*p<0.05 vs control)
6 hours of MV remains a rather short time of ventilation which represents a particular interest to explore proximal pathophysiological mechanisms of VIDD. As previously reported, 6 hours of mechanical ventilation is able to induce force deficit without histological alterations. However, 12 hours of mechanical ventilation can induce muscle atrophy by a mechanism mediated by RyR1 dependent SR Ca^2+-leak. The inventors therefore tested here the beneficial effect of 4F4t-NeuroP after 12 hours of mechanical ventilation.

RyR2 = details: cited from earlier work

T1 sequence (E9PZQ0 whole entry): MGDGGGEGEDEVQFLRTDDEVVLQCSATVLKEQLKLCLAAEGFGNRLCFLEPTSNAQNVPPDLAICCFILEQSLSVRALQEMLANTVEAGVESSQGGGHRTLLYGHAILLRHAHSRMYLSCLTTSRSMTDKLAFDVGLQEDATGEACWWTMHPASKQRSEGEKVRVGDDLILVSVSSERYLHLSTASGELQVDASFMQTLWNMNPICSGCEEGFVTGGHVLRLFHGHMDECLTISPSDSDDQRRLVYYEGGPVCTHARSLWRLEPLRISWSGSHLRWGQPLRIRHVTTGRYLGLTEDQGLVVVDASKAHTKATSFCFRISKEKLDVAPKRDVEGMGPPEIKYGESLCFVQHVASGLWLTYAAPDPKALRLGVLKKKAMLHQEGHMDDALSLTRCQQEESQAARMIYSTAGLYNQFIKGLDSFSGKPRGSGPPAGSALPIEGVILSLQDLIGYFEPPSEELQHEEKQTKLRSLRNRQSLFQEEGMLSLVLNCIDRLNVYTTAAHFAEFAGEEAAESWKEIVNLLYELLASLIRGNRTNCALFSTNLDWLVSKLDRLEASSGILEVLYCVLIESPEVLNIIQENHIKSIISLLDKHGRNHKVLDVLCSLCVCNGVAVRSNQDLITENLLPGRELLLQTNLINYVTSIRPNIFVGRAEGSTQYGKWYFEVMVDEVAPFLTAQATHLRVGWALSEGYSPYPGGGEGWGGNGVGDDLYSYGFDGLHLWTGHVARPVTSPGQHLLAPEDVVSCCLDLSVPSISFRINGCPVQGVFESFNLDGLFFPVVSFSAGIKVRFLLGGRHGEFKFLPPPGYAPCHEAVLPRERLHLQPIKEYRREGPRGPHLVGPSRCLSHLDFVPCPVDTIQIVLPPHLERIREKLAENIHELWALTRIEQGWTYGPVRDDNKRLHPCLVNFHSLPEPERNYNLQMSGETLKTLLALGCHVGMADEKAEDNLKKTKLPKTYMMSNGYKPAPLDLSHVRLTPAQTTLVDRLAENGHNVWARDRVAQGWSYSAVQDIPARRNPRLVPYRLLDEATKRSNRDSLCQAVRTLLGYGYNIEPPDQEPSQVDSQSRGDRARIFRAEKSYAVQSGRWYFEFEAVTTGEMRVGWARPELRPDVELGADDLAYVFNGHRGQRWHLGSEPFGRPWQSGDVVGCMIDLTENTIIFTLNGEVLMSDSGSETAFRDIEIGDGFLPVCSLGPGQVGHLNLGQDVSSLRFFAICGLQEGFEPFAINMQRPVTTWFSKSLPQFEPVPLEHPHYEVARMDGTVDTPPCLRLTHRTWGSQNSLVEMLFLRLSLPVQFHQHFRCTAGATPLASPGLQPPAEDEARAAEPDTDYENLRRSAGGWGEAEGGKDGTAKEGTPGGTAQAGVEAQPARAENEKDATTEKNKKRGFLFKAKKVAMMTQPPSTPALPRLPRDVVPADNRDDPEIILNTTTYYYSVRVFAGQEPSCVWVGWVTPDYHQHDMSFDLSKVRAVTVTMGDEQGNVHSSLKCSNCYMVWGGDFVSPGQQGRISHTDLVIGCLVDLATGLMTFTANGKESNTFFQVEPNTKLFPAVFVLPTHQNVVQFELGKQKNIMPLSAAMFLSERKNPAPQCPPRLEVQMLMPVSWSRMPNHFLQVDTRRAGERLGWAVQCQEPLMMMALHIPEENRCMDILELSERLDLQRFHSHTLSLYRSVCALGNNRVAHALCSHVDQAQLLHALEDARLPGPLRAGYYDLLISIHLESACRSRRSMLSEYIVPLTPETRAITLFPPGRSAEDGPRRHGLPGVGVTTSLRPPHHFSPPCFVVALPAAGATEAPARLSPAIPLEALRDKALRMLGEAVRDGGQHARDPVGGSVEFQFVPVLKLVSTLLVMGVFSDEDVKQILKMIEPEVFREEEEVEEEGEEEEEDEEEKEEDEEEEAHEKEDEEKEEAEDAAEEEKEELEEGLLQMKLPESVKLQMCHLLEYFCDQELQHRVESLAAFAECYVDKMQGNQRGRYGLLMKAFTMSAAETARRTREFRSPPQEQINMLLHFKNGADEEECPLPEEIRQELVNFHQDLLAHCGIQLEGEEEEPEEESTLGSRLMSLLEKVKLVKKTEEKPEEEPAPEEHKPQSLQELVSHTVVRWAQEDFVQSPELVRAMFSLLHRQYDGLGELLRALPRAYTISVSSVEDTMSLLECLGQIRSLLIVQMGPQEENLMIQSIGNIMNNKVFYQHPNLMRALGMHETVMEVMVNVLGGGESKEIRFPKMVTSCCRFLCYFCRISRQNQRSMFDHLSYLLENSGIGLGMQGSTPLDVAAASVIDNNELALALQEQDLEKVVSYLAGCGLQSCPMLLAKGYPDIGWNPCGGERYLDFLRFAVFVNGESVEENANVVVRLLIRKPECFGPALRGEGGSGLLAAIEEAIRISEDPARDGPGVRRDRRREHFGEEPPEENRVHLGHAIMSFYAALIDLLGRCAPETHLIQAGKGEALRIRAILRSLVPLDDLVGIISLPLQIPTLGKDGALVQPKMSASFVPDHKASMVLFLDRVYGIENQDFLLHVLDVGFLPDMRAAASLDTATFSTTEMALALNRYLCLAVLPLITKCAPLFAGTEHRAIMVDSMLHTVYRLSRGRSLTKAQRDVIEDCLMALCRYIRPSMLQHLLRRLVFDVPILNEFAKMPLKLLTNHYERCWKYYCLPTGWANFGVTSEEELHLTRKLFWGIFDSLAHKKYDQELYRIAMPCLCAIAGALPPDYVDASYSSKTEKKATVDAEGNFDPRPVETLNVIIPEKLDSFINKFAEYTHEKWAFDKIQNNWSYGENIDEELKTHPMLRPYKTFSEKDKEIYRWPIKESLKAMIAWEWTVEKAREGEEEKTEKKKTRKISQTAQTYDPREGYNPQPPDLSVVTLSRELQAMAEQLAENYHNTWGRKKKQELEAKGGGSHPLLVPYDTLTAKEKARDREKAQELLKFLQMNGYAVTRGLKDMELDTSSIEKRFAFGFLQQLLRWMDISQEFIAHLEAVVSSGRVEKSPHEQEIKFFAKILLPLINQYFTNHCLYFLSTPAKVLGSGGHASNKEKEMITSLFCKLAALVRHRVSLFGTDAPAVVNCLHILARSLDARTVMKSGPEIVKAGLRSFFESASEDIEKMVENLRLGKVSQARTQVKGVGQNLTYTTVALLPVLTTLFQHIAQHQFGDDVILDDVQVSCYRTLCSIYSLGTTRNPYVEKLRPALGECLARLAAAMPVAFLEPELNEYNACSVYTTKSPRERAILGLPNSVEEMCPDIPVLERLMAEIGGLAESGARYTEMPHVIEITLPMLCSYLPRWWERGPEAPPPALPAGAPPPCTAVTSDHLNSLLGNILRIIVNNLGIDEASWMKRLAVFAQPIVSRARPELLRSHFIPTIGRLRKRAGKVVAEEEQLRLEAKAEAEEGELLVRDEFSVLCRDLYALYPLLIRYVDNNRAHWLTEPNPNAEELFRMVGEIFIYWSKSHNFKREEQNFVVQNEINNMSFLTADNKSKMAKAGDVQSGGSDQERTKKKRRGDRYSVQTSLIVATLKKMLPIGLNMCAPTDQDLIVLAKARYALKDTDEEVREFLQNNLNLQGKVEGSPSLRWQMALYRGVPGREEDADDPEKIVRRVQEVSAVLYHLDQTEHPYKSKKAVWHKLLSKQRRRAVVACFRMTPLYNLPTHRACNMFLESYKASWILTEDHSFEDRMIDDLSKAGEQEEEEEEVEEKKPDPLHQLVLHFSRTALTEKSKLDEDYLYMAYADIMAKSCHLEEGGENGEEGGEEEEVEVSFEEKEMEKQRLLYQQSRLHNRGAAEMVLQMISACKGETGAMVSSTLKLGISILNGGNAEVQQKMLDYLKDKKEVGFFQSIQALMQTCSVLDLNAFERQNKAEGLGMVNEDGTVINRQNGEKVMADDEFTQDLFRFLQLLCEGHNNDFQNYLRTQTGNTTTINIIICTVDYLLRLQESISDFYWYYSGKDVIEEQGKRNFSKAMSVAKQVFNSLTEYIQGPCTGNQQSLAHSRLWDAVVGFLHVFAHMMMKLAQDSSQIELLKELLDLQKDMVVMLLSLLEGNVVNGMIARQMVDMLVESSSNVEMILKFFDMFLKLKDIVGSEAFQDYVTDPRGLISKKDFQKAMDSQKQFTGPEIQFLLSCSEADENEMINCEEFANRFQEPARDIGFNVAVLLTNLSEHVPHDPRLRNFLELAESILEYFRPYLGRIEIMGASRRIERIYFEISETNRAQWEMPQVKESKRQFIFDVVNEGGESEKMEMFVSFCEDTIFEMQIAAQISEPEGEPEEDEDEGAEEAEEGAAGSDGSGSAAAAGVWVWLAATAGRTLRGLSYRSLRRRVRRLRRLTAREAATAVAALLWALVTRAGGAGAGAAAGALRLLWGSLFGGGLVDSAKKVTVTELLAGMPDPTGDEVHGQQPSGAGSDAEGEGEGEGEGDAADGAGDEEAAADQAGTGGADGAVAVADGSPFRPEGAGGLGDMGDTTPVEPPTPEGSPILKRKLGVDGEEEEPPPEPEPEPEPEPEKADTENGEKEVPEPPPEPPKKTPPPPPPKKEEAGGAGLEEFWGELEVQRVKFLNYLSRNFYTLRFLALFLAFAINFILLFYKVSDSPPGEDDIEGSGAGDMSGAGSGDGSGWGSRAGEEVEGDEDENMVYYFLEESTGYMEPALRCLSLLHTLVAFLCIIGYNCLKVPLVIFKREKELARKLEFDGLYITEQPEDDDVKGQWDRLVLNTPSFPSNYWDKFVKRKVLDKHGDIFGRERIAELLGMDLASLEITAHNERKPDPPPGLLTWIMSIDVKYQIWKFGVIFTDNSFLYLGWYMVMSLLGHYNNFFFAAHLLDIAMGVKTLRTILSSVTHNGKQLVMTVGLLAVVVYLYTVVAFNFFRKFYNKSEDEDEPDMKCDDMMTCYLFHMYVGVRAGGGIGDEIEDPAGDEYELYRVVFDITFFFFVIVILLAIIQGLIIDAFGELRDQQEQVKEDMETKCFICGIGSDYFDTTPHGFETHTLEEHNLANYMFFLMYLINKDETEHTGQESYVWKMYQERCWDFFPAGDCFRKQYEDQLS

| SMILES | Tmax ([1]; pig, plasma, 0.25 mg/kg, read-out: time of plasmatic peak) | biodistribution [1] | dissipation of plasmatic peak [1] | protection against mechanical ventilation (force-frequency relationship) (mouse diaphragm (VIDD); VB558 1 μM, 6 h MV) | protection against mechanical ventilation (force-frequency relationship) (mouse diaphragm (VIDD); VB558 10 μM, 6 h MV) | prevention of VIDD in murine model (mouse diaphragm (VIDD)) | diastolic level of calcium ([2]; 1 μM, without isoproterenol, DMD hIPSc cardiomyocytes) | RyR2 dysfunction in DMD ([2]; DMD-derived ventricular cardiomyocytes) | resting calcium under isoproterenol stimulation ([2]; hexanor, Iso 1 μM, DMD hIPSc cardiomyocytes) | significant effect (inhibition or stimulation higher than 50%) at prostanoid receptors (prostanoid receptors) | Ca2+-sparks frequency / RyR1-dependent leaky behavior (RyR1) | distribution of fiber type (slow vs fast) [3] | muscle fibre atrophy / cross section area (CSA) [3] | prevention of VIDD / diaphragm weakness (force-frequency relationship) (mouse diaphragm (VIDD); single IV injection of 4F4t-NeuroP 0.01-100 μM, 6 h MV) | concentration giving maximal effect in VIDD prevention (mouse diaphragm (VIDD); single IV injection, dose response 0.01-100 μM, 6 h MV, maximal force at 120 Hz) | RyR2 mediated Ca2+-leak in cardiomyocytes (RyR2; previous study [30]) | cardiac anti-arrhythmic effect, RyR2 stabilization (RyR2; previously reported (ref. 21)) |
| --- | --- | --- | --- | --- | --- | --- | --- | --- | --- | --- | --- | --- | --- | --- | --- | --- | --- |
| CC/C=C\C[C@@H]1[C@H](/C=C/C(O)CCC(=O)O)[C@@H](O)C[C@H]1O (mixture of isomers) [VB558, (E)-6-((1S,2R,3R,5S)-3,5-dihydroxy-2-((Z)-pent-2-en-1-yl)cyclopentyl)-4-hydroxyhex-5-enoic Acid] | 5 to 10 min | fast biodistribution | dissipated rapidly within an hour | significant protection against mechanical ventilation in a range similar to that was obtained with 4F4t-NeuroP | significant protection against mechanical ventilation in a range similar to that was obtained with 4F4t-NeuroP | prevents VIDD; also recorded: prevent with a high efficiency VIDD | prevented | may be prevented | full normalization of the resting calcium | not observed at any of the receptors studied | – | – | – | – | – | – | – |
| CC/C=C\C/C=C\C/C=C\C[C@@H]1[C@H](/C=C/C(O)CCC(=O)O)[C@@H](O)C[C@H]1O (mixture of isomers) [Compound 4F4t-NeuroP, 4(RS)-4-F4t-Neuroprostane] | – | – | – | – | – | prevent with a high efficiency VIDD | – | – | – | – | full prevention of this RyR1-dependent leaky behavior | without changing the distribution of fiber type | prevents diaphragm muscle fibres atrophy after 12 hours of mechanical ventilation independently of the fibre phenotype; also recorded: prevents the reduction of cross section area (CSA), independently of the muscle fiber phenotype | prevents diaphragm weakness induced after 6 h of mechanical ventilation; also recorded: full prevention of VIDD | about 0.3 μM | able to prevent RyR2 mediated Ca^2+-leak in cardiomyocytes | the active molecule was not DHA itself but a non-enzymatic metabolite of DHA |
